Experiments:
Settings in all cases: 48 h
NOMO1 [1] = assay: cell viability relative to DMSO control; higher = less cytotoxic
How it was run: (§1)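 Before seeding, each leukemia line was adapted for at least four passages in each medium. NOMO1 or SEM cells (500 cells/well) and P12-Ichikawa cells (1000 cells/well) went into 1536-well plates at 5 μl, then received library compounds in DMSO by pin dosing across 11 threefold concentrations, 47 μM to 0.79 nM. Readout was CellTiter-Glo One luminescence after 48 h at 37°C, and viability is given as a per-plate percentage of DMSO wells, with cell-free wells as background.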

P12-Ichikawa [2] = assay: as above
How it was run: as §1

SEM cells [3] = assay: as above
How it was run: as §1

NOMO1 [4] = assay: AUC of viability dose-response curve (% viability x log10 dose units); higher = less sensitive
How it was run: (§2)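 In 1536-well plates, leukemia cells adapted to each medium (500 or 1000 cells/well) were exposed for 48 h at 37°C to library compounds in DMSO across 11 threefold doses, 47 μM down to 0.79 nM. Viability was read by CellTiter-Glo One luminescence and normalised per plate to DMSO and cell-free wells. A four-parameter log-logistic fit over log10 doses was integrated by trapezoidal rule. This yielded the area under the curve, with over-full-viability curves scaled and quality-control failures dropped.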

P12-Ichikawa [5] = assay: as above
How it was run: as §2

SEM cells [6] = assay: as above
How it was run: as §2

COc1cc2c(NC3CCN(C(C)C)CC3)nc(C3CCCCC3)nc2cc1OCCCN1CCCC1
cell viability [%]
Settings | NOMO1 [1] | P12-Ichikawa [2] | SEM cells [3]
HPLM + 10% dialyzed FBS, 0.000781 µM | 120 | 107 | 111
HPLM + 10% dialyzed FBS, 0.00234 µM | 133 | 110 | 125
HPLM + 10% dialyzed FBS, 0.00702 µM | 123 | 115 | 109
HPLM + 10% dialyzed FBS, 0.0211 µM | 118 | 121 | 122
HPLM + 10% dialyzed FBS, 0.0632 µM | 142 | 121 | 122
HPLM + 10% dialyzed FBS, 0.19 µM | 128 | 121 | 125
HPLM + 10% dialyzed FBS, 0.569 µM | 118 | 120 | 130
HPLM + 10% dialyzed FBS, 1.71 µM | 130 | 123 | 81.9
HPLM + 10% dialyzed FBS, 5.12 µM | 111 | 119 | 108
HPLM + 10% dialyzed FBS, 15.4 µM | 102 | 105 | 61.7
HPLM + 10% dialyzed FBS, 46.1 µM | 9.5 | 4.7 | 6.83
RPMI 5 mM glucose + 10% FBS, 0.000781 µM | 107 | 112 | 109
RPMI 5 mM glucose + 10% FBS, 0.00234 µM | 117 | 127 | 113
RPMI 5 mM glucose + 10% FBS, 0.00702 µM | 114 | 113 | 122
RPMI 5 mM glucose + 10% FBS, 0.0211 µM | 129 | 127 | 116
RPMI 5 mM glucose + 10% FBS, 0.0632 µM | 117 | 121 | 112
RPMI 5 mM glucose + 10% FBS, 0.19 µM | 130 | 116 | 122
RPMI 5 mM glucose + 10% FBS, 0.569 µM | 134 | 120 | 109
RPMI 5 mM glucose + 10% FBS, 1.71 µM | 114 | 131 | 77.3
RPMI 5 mM glucose + 10% FBS, 5.12 µM | 118 | 112 | 113
RPMI 5 mM glucose + 10% FBS, 15.4 µM | 115 | 96.9 | 76.6
RPMI 5 mM glucose + 10% FBS, 46.1 µM | 18.2 | 3.81 | 10.2
RPMI 5 mM glucose + 10% dialyzed FBS, 0.000781 µM | – | 106 | 90.1
RPMI 5 mM glucose + 10% dialyzed FBS, 0.00234 µM | – | 117 | 114
RPMI 5 mM glucose + 10% dialyzed FBS, 0.00702 µM | – | 114 | 111
RPMI 5 mM glucose + 10% dialyzed FBS, 0.0211 µM | – | 121 | 119
RPMI 5 mM glucose + 10% dialyzed FBS, 0.0632 µM | – | 123 | 116
RPMI 5 mM glucose + 10% dialyzed FBS, 0.19 µM | – | 129 | 113
RPMI 5 mM glucose + 10% dialyzed FBS, 0.569 µM | – | 122 | 112
RPMI 5 mM glucose + 10% dialyzed FBS, 1.71 µM | – | 133 | 76.8
RPMI 5 mM glucose + 10% dialyzed FBS, 5.12 µM | – | 110 | 115
RPMI 5 mM glucose + 10% dialyzed FBS, 15.4 µM | – | 91.5 | 93.5
RPMI 5 mM glucose + 10% dialyzed FBS, 46.1 µM | – | 4.78 | 32.9

AUC of viability dose-response curve
Settings | NOMO1 [4] | P12-Ichikawa [5] | SEM cells [6]
HPLM + 10% dialyzed FBS | 444 | 449 | 419
RPMI 5 mM glucose + 10% FBS | 455 | 445 | 440
RPMI 5 mM glucose + 10% dialyzed FBS | 438 | 441 | 454

CCCCOc1ccc(C(=O)Nc2ccc(F)cc2F)cc1
cell viability [%]
Settings | NOMO1 [1] | P12-Ichikawa [2] | SEM cells [3]
HPLM + 10% dialyzed FBS, 0.000781 µM | 85.8 | 83.2 | 68.1
HPLM + 10% dialyzed FBS, 0.00234 µM | 90.8 | 95.7 | 88.6
HPLM + 10% dialyzed FBS, 0.00702 µM | 91.4 | 83.5 | 67.1
HPLM + 10% dialyzed FBS, 0.0211 µM | 96.3 | 86.5 | 95.1
HPLM + 10% dialyzed FBS, 0.0632 µM | 89.2 | 90.6 | 86.9
HPLM + 10% dialyzed FBS, 0.19 µM | 85.6 | 85.3 | 88.3
HPLM + 10% dialyzed FBS, 0.569 µM | 103 | 89.1 | 84.6
HPLM + 10% dialyzed FBS, 1.71 µM | 104 | 97.1 | 30.1
HPLM + 10% dialyzed FBS, 5.12 µM | 92.2 | 96 | 88.1
HPLM + 10% dialyzed FBS, 15.4 µM | 97.8 | 102 | 92.5
HPLM + 10% dialyzed FBS, 46.1 µM | 51 | 67.1 | 83.4
RPMI 5 mM glucose + 10% FBS, 0.000781 µM | 81.7 | 78.9 | 68.6
RPMI 5 mM glucose + 10% FBS, 0.00234 µM | 87.5 | 91.8 | 88.8
RPMI 5 mM glucose + 10% FBS, 0.00702 µM | 81.5 | 82 | 65.9
RPMI 5 mM glucose + 10% FBS, 0.0211 µM | 89.5 | 92.9 | 86.5
RPMI 5 mM glucose + 10% FBS, 0.0632 µM | 86.3 | 89.4 | 83.4
RPMI 5 mM glucose + 10% FBS, 0.19 µM | 94.7 | 89.5 | 92.7
RPMI 5 mM glucose + 10% FBS, 0.569 µM | 88.1 | 89.4 | 81.5
RPMI 5 mM glucose + 10% FBS, 1.71 µM | 93.8 | 93 | 48.3
RPMI 5 mM glucose + 10% FBS, 5.12 µM | 92.9 | 89 | 88.4
RPMI 5 mM glucose + 10% FBS, 15.4 µM | 88.3 | 88.1 | 101
RPMI 5 mM glucose + 10% FBS, 46.1 µM | 83 | 84.3 | 73.5
RPMI 5 mM glucose + 10% dialyzed FBS, 0.000781 µM | 79.5 | 84 | 78
RPMI 5 mM glucose + 10% dialyzed FBS, 0.00234 µM | 89.2 | 83.7 | 89.7
RPMI 5 mM glucose + 10% dialyzed FBS, 0.00702 µM | 76.8 | 79.2 | 70.6
RPMI 5 mM glucose + 10% dialyzed FBS, 0.0211 µM | 97.5 | 87.1 | 90.1
RPMI 5 mM glucose + 10% dialyzed FBS, 0.0632 µM | 89.6 | 83.9 | 84.7
RPMI 5 mM glucose + 10% dialyzed FBS, 0.19 µM | 95.4 | 80.2 | 85.6
RPMI 5 mM glucose + 10% dialyzed FBS, 0.569 µM | 91.9 | 86.7 | 86.2
RPMI 5 mM glucose + 10% dialyzed FBS, 1.71 µM | 96.5 | 89.3 | 48.1
RPMI 5 mM glucose + 10% dialyzed FBS, 5.12 µM | 97.8 | 92.5 | 88
RPMI 5 mM glucose + 10% dialyzed FBS, 15.4 µM | 88.5 | 87.3 | 90.2
RPMI 5 mM glucose + 10% dialyzed FBS, 46.1 µM | 92 | 86.6 | 76.7

AUC of viability dose-response curve
Settings | NOMO1 [4] | P12-Ichikawa [5] | SEM cells [6]
HPLM + 10% dialyzed FBS | 437 | 423 | 377
RPMI 5 mM glucose + 10% FBS | 420 | 422 | 383
RPMI 5 mM glucose + 10% dialyzed FBS | 433 | 408 | 385
